Test results taken from patent US10668062B2, “Oxabicycloheptanes and oxabicycloheptenes for the treatment of diabetes” (priority 2012, dated 2020).
Entries after “also recorded” stand apart in the source; their conditions may differ.

How the values were obtained:
PP2A [1] = biological target: T1, PP2A (Rattus norvegicus, UniProt P63331); details: inhibition of PP2A activity; Galbo et al, 2011; cited from earlier work
T1 construct: rat liver cells exposed to palmitate, a fatty acid, PP2A activity is increased; host or cells: rat liver cells (endogenous PP2A)

endothelial barrier [2] = details: Zhou et al, 2012; cited from earlier work
[3] = Other symptoms and complications of Type 2 Diabetes (Example 6); type: in vivo; details: for effects of other dysfunctions associated with or caused by Type 2 Diabetes: atherosclerosis, low glucose tolerance, dyslipidemia, hyperlipidemia, hypertriglyceridemia, hypercholesterolemia; for complications associated with or caused by Type 2 Diabetes: in vivo
[4] = Insulin resistance in human patients diagnosed with Type 2 Diabetes (Example 4); type: in vivo
[5] = Activity when given orally to mice; type: in vivo; details: oral
Text: (§1) The compounds used in the method of the present invention are protein phosphatase 2A (PP2A) inhibitors (Lu et al., 2009; U.S. Pat. No. 7,998,957 B2). […] It has also been shown that another structural homolog of these compounds, LB-107, is active when given orally to mice.
(§2) Disclosed herein is that PP2A inhibitors are effective in treating insulin resistance, Type 2 Diabetes and disorders related to Type 2 Diabetes. […] We have also shown that another structural homolog of these compounds, LB-107, is active when given orally to mice. LB-100 is entering clinical trials as a potential agent for enhancing the effectiveness of certain anticancer agents.

Akt = test: Dephosphorylation and inactivation of Akt in mammalian cells (Example 3); type: cell-based; details: mammalian cells incl. fat, liver, muscle, endothelial cells, hepatocytes, pancreatic islet β-cells
[6] = Type 2 Diabetes related vascular injury in human patients (Example 5); type: in vivo; details: human patients diagnosed with Type 2 Diabetes
endothelial barrier [7] = details: model of sepsis; by inhibition of PP2A activation; cited from earlier work
cancer cells = test: Growth of cancer cells in mouse model systems; type: in vivo
Text: as §1, §2

PP2A [8] = biological target: T2, PP2A (Homo sapiens, UniProt P67775); details: given parenterally in mice; cited from earlier work
T2 construct: endogenous in cells; host or cells: human cancer cells

PP2A [9] = biological target: T2, PP2A; details: cited from earlier work
Toxicity studies in dogs = type: in vivo; details: doses known to reduce PP2A activity in tissue
Text: as §2

Toxicity studies in rats = type: in vivo; details: doses known to reduce PP2A activity in tissue
Text: as §2

T2 sequence (P67775 whole entry): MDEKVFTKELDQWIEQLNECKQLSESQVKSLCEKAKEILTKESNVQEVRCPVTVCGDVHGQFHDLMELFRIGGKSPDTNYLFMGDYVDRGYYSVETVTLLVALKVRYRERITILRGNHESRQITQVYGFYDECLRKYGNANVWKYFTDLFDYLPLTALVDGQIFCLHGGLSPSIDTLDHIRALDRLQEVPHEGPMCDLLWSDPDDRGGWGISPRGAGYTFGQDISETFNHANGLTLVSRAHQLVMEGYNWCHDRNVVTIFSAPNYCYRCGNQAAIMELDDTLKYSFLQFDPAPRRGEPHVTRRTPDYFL
T2 sequence (P30153 whole entry partner): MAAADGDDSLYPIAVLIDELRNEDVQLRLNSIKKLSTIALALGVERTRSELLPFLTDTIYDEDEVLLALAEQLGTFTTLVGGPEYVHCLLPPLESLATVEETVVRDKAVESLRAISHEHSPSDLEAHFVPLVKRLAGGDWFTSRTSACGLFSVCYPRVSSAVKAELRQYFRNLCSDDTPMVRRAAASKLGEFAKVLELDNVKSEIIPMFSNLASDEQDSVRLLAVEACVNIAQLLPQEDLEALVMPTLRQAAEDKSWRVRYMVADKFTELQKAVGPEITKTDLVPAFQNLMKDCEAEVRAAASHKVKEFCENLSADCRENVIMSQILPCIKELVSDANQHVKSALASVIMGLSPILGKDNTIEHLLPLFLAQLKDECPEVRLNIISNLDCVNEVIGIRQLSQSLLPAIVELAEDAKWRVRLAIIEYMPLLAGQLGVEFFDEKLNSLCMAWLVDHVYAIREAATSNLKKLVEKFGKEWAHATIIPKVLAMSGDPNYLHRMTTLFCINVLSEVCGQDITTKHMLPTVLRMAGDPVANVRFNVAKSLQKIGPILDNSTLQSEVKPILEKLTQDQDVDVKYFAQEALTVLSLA
T1 sequence (P63331 whole entry): as the sequence (P67775 whole entry) above, with V5L counted along it
T1 sequence (Q5XI34 1-589 partner): as the sequence (P30153 whole entry partner) above, with S324T counted along it

| Structure (SMILES) | impairment of insulin activity (PP2A [1]) | induction of endothelial barrier injury by lipopolysaccharide and interferon gamma (endothelial barrier [2]) | effects of other dysfunctions associated with or caused by Type 2 Diabetes [3] | complications associated with or caused by Type 2 Diabetes [3] | insulin resistance [4] | insulin sensitivity [4] | activity when given orally to mice [5] | activation of Akt (Akt) | dephosphorylation and inactivation of Akt by PP2A (Akt) | phosphorylation of Akt (Akt) | Type 2 Diabetes related vascular injury caused by disruption of the endothelial barrier [6] | Type 2 Diabetes related vascular injury in the liver, muscle, retina and pancreas [6] | endothelial barrier function (endothelial barrier [7]) | growth of cancer cells in mouse model systems (cancer cells) | inhibition of PP2A in xenografts of human tumor cells in mice (PP2A [8]) | inhibition of PP2A in vitro in human cancer cells (PP2A [9]) | toxicity on intravenous administration (Toxicity studies in dogs) | toxicity on intravenous administration (Toxicity studies in rats) |
| --- | --- | --- | --- | --- | --- | --- | --- | --- | --- | --- | --- | --- | --- | --- | --- | --- | --- | --- |
| C=C1[C@@H](O)[C@@H]2O[C@]3(CC[C@H](/C=C/[C@@H](C)[C@@H]4CC(C)=C[C@@]5(O[C@H](C[C@@](C)(O)C(=O)O)CC[C@H]5O)O4)O3)CC[C@H]2O[C@@H]1[C@@H](O)C[C@H](C)[C@H]1O[C@@]2(CCCCO2)CC[C@H]1C [okadaic acid] | reversed the impairment of insulin activity | prevent the induction of endothelial barrier injury; also recorded: prevents the induction of endothelial barrier dysfunction | – | – | – | – | – | – | – | – | – | – | – | – | – | – | – | – |
| C[C@@]12C(=O)OC(=O)[C@]1(C)[C@H]1CC[C@@H]2O1 [cantharidin] | reversed the impairment of insulin activity | – | – | – | – | – | – | – | – | – | – | – | – | – | – | – | – | – |
| COC(=O)C1C(C(=O)N2CCN(C)CC2)[C@@H]2CC[C@H]1O2 (stereo in doubt) [LB-107, 3-(4-Methylpiperazine-1-carbonyl)-7-oxa-bicyclo[2,2,1]heptane-2-carboxylic acid methyl ester] | – | – | reduce the effects of other dysfunctions | reduce complications associated with or caused by Type 2 Diabetes | reduce insulin resistance | increase insulin sensitivity | active | increase activation of Akt | reduce dephophorylation and inactivation of Akt | increase phosphorylation of Akt | reduce Type 2 Diabetes related vascular injury caused by disruption of the endothelial barrier | reduce Type 2 Diabetes related vascular injury in the liver, muscle, retina and pancreas | – | – | – | – | – | – |
| O=C1O[C@H]([C@@H](O)CO)C(O)=C1O [ascorbic acid] | – | prevent the induction of endothelial barrier injury | – | – | – | – | – | – | – | – | – | – | improves endothelial barrier function | – | – | – | – | – |
| CC(C)(C)OC(=O)N1CCN(C(=O)C2C(C(=O)O)[C@H]3CC[C@@H]2O3)CC1 (some centres unmarked) [LB-102] | – | – | reduce the effects of other dysfunctions | reduce complications associated with or caused by Type 2 Diabetes | reduce insulin resistance | increase insulin sensitivity | – | increase activation of Akt | reduce dephophorylation and inactivation of Akt | increase phosphorylation of Akt | reduce Type 2 Diabetes related vascular injury caused by disruption of the endothelial barrier | reduce Type 2 Diabetes related vascular injury in the liver, muscle, retina and pancreas | – | inhibit the growth of cancer cells | inhibitors of PP2A | inhibitors of PP2A | – | – |
| CN1CCN(C(=O)C2C(C(=O)O)[C@H]3CC[C@@H]2O3)CC1 (some centres unmarked) [LB-100] | – | – | reduce the effects of other dysfunctions | reduce complications associated with or caused by Type 2 Diabetes | reduce insulin resistance | increase insulin sensitivity | – | increase activation of Akt | reduce dephophorylation and inactivation of Akt | increase phosphorylation of Akt | reduce Type 2 Diabetes related vascular injury caused by disruption of the endothelial barrier | reduce Type 2 Diabetes related vascular injury in the liver, muscle, retina and pancreas | – | inhibit the growth of cancer cells | inhibitors of PP2A | inhibitors of PP2A | without undue toxicity | without undue toxicity |
